Molecules are shown by their SMILES. Where two headings read alike, the source gives them in different places.

What all share (test): biochemical
Design in all cases: Eurofins KinaseProfiler full panel at Km ATP, residual kinase activity (%) relative to DMSO

One assay deals with SRPK2(h) (Homo sapiens, UniProt P78362). In outline:
(§1)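 Radiometric kinase activity assays were run with ATP at Km and compounds at 10 µM, and remaining activity (%) was reported. A separate competitive binding screen measured DNA-tagged kinase displaced from immobilized active-site ligands by qPCR, giving percent kinase still bound at 10 µM compound in DMSO.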

For a further assay, the target named is T1, IKKβ(h) (Homo sapiens, UniProt O14920).
T1 construct: gene IKBKB
T1 sequence (O14920 1-756): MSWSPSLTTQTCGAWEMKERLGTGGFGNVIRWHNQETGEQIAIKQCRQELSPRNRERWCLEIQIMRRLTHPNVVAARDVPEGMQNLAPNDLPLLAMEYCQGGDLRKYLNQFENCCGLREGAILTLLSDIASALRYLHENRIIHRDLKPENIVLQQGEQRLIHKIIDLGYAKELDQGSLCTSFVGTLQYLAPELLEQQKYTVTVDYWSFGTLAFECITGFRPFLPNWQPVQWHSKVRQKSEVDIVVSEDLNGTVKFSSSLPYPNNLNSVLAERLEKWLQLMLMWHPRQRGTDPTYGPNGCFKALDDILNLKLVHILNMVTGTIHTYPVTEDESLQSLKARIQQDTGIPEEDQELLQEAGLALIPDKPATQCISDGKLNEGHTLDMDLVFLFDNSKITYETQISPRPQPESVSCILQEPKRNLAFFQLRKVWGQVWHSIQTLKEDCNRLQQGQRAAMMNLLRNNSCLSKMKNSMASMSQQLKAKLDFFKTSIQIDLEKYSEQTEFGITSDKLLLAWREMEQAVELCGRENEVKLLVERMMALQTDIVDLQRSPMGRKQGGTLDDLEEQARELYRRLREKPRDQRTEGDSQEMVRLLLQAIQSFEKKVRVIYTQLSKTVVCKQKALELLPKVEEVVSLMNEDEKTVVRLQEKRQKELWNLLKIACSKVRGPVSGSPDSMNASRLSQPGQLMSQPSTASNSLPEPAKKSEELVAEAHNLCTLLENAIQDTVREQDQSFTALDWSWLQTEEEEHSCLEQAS
The method in brief:
as §1

The next assay deals with TGFBR2(h) (Homo sapiens, UniProt P37173). In outline:
as §1

Assay [1] concerns the target T2, PI3 Kinase (p110a(E542K)/p85a)(m) (Mus musculus, UniProt P42337, E542K).
T2 construct: gene Pik3ca
In outline:
as §1

A further assay has as its target PAK3(h) (Homo sapiens, UniProt O75914). The method in brief:
as §1

A further assay deals with T3, TAO3(h) (Homo sapiens, UniProt Q9H2K8).
T3 construct: gene TAOK3
T3 sequence (Q9H2K8 1-898): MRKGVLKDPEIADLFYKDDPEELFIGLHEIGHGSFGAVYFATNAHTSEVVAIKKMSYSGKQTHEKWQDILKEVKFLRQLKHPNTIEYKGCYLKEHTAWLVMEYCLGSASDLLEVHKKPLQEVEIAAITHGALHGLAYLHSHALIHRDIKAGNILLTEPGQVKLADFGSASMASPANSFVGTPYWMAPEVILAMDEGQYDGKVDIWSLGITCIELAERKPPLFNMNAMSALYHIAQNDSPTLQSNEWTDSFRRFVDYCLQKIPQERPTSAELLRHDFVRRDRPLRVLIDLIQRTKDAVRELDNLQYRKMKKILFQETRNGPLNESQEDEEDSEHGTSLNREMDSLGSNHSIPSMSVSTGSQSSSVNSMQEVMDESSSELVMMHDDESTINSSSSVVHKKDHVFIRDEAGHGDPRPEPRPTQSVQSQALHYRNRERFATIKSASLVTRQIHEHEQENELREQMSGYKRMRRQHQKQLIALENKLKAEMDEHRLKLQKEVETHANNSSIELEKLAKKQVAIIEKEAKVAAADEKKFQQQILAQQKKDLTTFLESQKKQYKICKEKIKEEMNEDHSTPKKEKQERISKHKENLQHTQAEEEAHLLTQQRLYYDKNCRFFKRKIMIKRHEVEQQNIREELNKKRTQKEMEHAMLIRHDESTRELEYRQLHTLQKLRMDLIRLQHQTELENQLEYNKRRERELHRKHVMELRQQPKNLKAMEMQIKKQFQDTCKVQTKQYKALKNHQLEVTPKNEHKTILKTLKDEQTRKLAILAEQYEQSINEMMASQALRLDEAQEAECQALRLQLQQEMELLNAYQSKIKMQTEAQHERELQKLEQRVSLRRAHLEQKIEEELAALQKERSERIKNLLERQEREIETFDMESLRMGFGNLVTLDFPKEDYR
The method in brief: as §1

Setting [2] is: read-out: Residual activity (%) 5at.
Setting [3] is: read-out: Residual activity (%) 5ay.
[4] abbreviates: read-out: Residual activity (%) 5as.
[5] abbreviates: read-out: Residual activity (%) Spautin-1 5aa.

Sequence of TGFBR2(h) (P37173 whole entry): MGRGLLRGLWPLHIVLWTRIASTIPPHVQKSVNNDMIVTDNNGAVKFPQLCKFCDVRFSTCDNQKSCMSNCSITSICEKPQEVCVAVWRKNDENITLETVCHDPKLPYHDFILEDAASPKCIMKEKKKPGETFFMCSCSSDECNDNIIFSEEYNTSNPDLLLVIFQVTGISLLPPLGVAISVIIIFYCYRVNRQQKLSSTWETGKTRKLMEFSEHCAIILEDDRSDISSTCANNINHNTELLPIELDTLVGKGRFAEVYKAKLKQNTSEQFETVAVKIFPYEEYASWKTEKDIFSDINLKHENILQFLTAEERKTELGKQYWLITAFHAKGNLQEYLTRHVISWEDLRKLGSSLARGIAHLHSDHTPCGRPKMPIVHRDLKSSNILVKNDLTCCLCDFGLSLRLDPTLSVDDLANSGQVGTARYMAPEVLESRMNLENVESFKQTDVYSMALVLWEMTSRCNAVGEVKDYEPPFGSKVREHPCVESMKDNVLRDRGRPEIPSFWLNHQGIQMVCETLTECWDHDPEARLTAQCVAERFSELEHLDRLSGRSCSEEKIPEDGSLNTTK
Sequence of PAK3(h) (O75914 whole entry): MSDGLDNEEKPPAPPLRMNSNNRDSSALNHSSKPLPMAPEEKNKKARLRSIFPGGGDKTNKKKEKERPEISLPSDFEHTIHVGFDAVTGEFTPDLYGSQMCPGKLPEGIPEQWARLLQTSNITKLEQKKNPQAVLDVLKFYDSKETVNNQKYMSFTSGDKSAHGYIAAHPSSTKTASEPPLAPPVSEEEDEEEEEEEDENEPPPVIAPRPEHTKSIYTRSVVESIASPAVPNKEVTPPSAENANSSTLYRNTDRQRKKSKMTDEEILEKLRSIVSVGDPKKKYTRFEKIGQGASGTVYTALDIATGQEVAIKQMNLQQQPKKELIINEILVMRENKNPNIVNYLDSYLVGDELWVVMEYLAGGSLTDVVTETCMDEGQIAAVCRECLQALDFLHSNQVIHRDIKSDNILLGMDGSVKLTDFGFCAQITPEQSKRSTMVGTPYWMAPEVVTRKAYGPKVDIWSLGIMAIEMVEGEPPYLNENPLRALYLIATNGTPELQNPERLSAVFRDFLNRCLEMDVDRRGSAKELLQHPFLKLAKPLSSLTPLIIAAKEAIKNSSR
Sequence of SRPK2(h) (P78362 whole entry): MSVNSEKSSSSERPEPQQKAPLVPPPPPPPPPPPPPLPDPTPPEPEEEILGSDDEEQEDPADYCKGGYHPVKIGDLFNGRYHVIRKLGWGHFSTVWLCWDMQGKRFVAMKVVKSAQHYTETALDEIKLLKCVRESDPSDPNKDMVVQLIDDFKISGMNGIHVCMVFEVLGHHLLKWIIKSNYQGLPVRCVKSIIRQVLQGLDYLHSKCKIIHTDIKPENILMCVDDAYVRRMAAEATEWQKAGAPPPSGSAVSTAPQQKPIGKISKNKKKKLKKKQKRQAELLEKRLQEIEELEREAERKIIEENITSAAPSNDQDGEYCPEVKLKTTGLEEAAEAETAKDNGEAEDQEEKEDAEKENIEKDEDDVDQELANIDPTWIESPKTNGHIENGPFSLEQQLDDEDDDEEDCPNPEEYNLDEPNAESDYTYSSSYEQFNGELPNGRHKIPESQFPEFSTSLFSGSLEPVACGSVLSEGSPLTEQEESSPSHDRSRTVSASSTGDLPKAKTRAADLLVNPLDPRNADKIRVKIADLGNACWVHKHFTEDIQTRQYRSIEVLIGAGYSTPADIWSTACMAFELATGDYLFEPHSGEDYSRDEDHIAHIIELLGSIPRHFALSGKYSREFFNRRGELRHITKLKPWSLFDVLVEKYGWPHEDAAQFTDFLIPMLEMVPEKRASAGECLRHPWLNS
T2 sequence (P42337 whole entry E542K): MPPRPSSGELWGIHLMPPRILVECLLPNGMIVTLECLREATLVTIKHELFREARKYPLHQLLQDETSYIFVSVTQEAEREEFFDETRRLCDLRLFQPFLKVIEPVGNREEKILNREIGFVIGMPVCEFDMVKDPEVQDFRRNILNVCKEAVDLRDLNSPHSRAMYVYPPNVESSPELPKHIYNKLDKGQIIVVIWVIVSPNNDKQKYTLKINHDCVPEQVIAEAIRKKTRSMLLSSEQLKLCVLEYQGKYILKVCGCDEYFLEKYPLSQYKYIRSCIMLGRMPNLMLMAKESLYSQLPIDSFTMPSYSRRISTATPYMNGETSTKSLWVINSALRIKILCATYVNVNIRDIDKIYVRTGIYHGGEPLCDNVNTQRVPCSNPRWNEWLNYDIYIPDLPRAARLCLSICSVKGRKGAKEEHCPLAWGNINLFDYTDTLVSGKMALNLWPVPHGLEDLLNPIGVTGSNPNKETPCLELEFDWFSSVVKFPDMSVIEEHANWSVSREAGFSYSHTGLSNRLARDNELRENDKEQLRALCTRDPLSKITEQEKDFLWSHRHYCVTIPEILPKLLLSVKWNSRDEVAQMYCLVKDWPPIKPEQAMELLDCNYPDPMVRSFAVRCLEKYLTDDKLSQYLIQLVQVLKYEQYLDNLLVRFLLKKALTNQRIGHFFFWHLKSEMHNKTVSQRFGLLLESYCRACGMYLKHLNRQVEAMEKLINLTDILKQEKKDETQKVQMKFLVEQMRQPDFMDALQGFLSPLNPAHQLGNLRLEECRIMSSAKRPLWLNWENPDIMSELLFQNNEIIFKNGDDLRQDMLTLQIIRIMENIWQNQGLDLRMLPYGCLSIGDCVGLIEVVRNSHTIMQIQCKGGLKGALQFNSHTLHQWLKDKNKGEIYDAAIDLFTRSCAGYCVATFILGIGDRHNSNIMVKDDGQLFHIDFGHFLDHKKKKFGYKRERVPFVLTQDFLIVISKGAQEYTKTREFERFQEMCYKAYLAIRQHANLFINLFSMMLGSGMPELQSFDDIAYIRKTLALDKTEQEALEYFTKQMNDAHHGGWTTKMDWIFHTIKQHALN
T2 sequence (P26450 whole entry partner): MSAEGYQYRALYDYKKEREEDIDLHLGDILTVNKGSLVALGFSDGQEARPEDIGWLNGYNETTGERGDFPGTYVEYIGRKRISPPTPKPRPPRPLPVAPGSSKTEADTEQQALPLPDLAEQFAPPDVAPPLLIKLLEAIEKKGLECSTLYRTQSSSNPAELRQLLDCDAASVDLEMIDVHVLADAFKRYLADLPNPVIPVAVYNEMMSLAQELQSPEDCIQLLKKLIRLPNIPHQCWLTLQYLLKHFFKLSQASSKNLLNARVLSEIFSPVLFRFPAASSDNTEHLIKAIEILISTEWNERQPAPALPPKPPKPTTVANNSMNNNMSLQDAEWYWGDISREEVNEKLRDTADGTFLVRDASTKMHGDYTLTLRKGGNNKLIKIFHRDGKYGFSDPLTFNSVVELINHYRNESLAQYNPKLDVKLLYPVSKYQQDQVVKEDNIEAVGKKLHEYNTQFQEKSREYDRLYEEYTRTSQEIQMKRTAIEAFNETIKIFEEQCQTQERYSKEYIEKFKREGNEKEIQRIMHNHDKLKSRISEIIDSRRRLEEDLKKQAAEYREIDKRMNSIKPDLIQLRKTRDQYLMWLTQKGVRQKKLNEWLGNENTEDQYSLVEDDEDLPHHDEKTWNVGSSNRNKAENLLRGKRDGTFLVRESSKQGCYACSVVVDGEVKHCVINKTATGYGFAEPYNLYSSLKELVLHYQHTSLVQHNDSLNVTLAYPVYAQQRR

For `Fc1ccc2ncnc(NCCc3ccc(Cl)cc3)c2c1` [5at, N-[2-(4-Chlorophenyl)Ethyl]-6-Fluoro-4-Quinazolinamine], the remaining activity at 10 µM at SRPK2(h) (setting [2]) was 104%; on IKKβ(h) (setting [2]), 98%; at TGFBR2(h) (setting [2]) it was 93%; in assay [1] (setting [2]) it was 94%; on PAK3(h) (setting [2]), 93%; on TAO3(h) (setting [2]), 82%.

`COc1ccc2ncnc(Nc3cccc(F)c3)c2c1` [5ay, N-(3-Fluorophenyl)-6-Methoxy-4-Quinazolinamine]: the remaining activity at 10 µM on SRPK2(h) (setting [3]) was determined as 80%; at IKKβ(h) (setting [3]), 107%; at TGFBR2(h) (setting [3]), 96%; in assay [1] (setting [3]), 93%; on PAK3(h) (setting [3]), 99%; on TAO3(h) (setting [3]), 77%.

`Fc1ccc(CCNc2ncnc3ccc(F)cc23)cc1` [5as, 6-Fluoro-N-[2-(4-Fluorophenyl)Ethyl]-4-Quinazolinamine]: the remaining activity at 10 µM on SRPK2(h) (setting [4]) came to 87%; at IKKβ(h) (setting [4]) it was 110%; on TGFBR2(h) (setting [4]), 91%; in assay [1] (setting [4]) it was 91%; on PAK3(h) (setting [4]), 107%; at TAO3(h) (setting [4]) it was 78%.

As to `Fc1ccc(CNc2ncnc3ccc(F)cc23)cc1` [5aa, 6-Fluoro-N-(4-fluorobenzyl)-4-Quinazolinamine], the remaining activity at 10 µM at SRPK2(h) (setting [5]) is 80%; at IKKβ(h) (setting [5]), 106%; at TGFBR2(h) (setting [5]) it was 97%; in assay [1] (setting [5]), 96%; on PAK3(h) (setting [5]), 96%; at TAO3(h) (setting [5]), 94%.

Values taken from article PMC7827406, “Structure–Activity Relationship (SAR) Study of Spautin-1 to Entail the Discovery of Novel NEK4 Inhibitors” (International Journal of Molecular Sciences, 2021).
